In US20250179103A1, “6-OXODECAHYDROPYRROLO[1,2-A][1,5]DIAZOCINE AND 6-OXODECAHYDRO-4H-PYRROLO[2,1-D][1,5]THIAZOCINE DERIVATIVES AS STAT3 AND STAT6 MODULATORS FOR THE TREATMENT OF CANCER AND INFLAMMATORY CONDITIONS” (Recludix Pharma, Inc., priority 2022, published 2025):

System: pY641-STAT6 in Peripheral Blood Mononuclear Cells (PBMC)
Experiment: MSD-pSTAT-PBMC Assay (pSTAT6, IL-4 stimulated)
Format: cell-based, Human
Conditions: Homo sapiens, compound 3 hrs, then 1 ng/mL IL-4 for 10 min
Summary of the method: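 Phospho-STAT readout used MSD electrochemiluminescence with total STAT3 or STAT6 capture in lysates of cryopreserved human PBMCs. Cells had 3 h compound exposure before a 10 min cytokine pulse: IL-6 10 ng/mL for pSTAT3, IL-4 1 ng/mL for pSTAT6. IC50 came from background-subtracted, DMSO-normalised signal, with categories A≤100 nM up to D>3 μM.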

| Compound | IC50 |
| --- | --- |
| CCCOC(=O)[C@H](C)NP(=O)(Oc1ccccc1)C(F)c1ccc2ccc(C(=O)N[C@H]3CN(C(=O)c4noc5cc(OC)ccc45)CC[C@H]4CC[C@@H](C(=O)N5CCOCC5)N4C3=O)cc2c1 (stereo partly drawn) [Compound 424, propyl ((fluoro(7-(((5S,8S,10aR)-3-(6-methoxybenzo[d]isoxazole-3-carbonyl)-8-(morpholine-4-carbonyl)-6-oxodeca-hydropyrrolo [1,2-a][1,5]diazocin-5-yl)carbamoyl)naphthalen-2-yl)methyl) (phenoxy)phosphoryl)-L-alaninate] | 1000 to 3000 nM |
| CCCOC(=O)[C@H](C)NP(=O)(Oc1ccccc1)C(F)c1ccc2ccc(C(=O)N[C@H]3CN(C(=O)c4noc5c4CCCC5)CC[C@H]4CC[C@@H](C(=O)N5CCOCC5)N4C3=O)cc2c1 (stereo partly drawn) [Compound 425, propyl ((fluoro(7-(((5S,8S,10aR)-8-(morpholine-4-carbonyl)-6-oxo-3-(4,5,6,7-tetrahydro-benzo[d]isoxazole-3-carbonyl)decahydropyrrolo [1,2-a][1,5]diazocin-5-yl)carbamoyl)naphthalen-2-yl)methyl) (phenoxy)phosphoryl)-L-alaninate] | 1000 to 3000 nM |
| CCCOC(=O)[C@H](C)NP(=O)(Oc1ccccc1)C(F)c1ccc2ccc(C(=O)N[C@H]3CN(C(=O)c4cc5ncccn5n4)CC[C@H]4CC[C@@H](C(=O)N5CCOCC5)N4C3=O)cc2c1 (stereo partly drawn) [Compound 426, propyl ((fluoro(7-(((5S,8S,10aR)-8-(morpholine-4-carbonyl)-6-oxo-3-(pyrazolo[1,5-a]pyrimidine-2-carbonyl)decahydro-pyrrolo [1,2-a][1,5]diazocin-5-yl)carbamoyl)naphthalen-2-yl)methyl) (phenoxy)phosphoryl)-L-alaninate] | > 3000 nM |
| CCCOC(=O)[C@H](C)NP(=O)(Oc1ccccc1)C(F)c1ccc2ccc(C(=O)N[C@H]3CN(S(=O)(=O)CCC)CC[C@H]4CC[C@@H](C(=O)N5CCOCC5)N4C3=O)cc2c1 (stereo partly drawn) [Compound 427, propyl ((fluoro(7-(((5S,8S,10aR)-8-(morpholine-4-carbonyl)-6-oxo-3-(propylsulfonyl)decahydro-pyrrolo [1,2-a][1,5]diazocin-5-yl)carbamoyl)naphthalen-2-yl)methyl) (phenoxy)phosphoryl)-L-alaninate] | > 3000 nM |
| CCCOC(=O)[C@H](C)NP(=O)(Oc1ccccc1)C(F)c1ccc2ccc(C(=O)N[C@H]3CN(C(=O)c4noc5ccc(OC)cc45)CC[C@H]4CC[C@@H](C(=O)N5CCOCC5)N4C3=O)cc2c1 (stereo partly drawn) [Compound 428, propyl ((fluoro(7-(((5S,8S,10aR)-3-(5-methoxybenzo [d]isoxazole-3-carbonyl)-8-(morpholine-4-carbonyl)-6-oxodecahydro-pyrrolo [1,2-a][1,5]diazocin-5-yl)carbamoyl)naphthalen-2-yl)methyl) (phenoxy)phosphoryl)-L-alaninate] | 100 to 1000 nM |
| CCCOC(=O)[C@H](C)NP(=O)(Oc1ccccc1)C(F)c1ccc2ccc(C(=O)N[C@H]3CN(C(=O)c4ncn5c4CCCC5)CC[C@H]4CC[C@@H](C(=O)N5CCOCC5)N4C3=O)cc2c1 (stereo partly drawn) [Compound 429, propyl ((fluoro(7-(((5S,8S,10aR)-8-(morpholine-4-carbonyl)-6-oxo-3-(5,6,7,8-tetrahydro-imidazo [1,5-a]pyridine-1-carbonyl)decahydropyrrolo [1,2-a][1,5]diazocin-5-yl)carbamoyl)naphthalen-2-yl)methyl) (phenoxy)phosphoryl)-L-alaninate] | > 3000 nM |
| CCCOC(=O)[C@H](C)NP(=O)(Oc1ccccc1)C(F)c1ccc2ccc(C(=O)N[C@H]3CN(C(=O)c4noc5ccc(Cl)cc45)CC[C@H]4CC[C@@H](C(=O)N5CCOCC5)N4C3=O)cc2c1 (stereo partly drawn) [Compound 430, propyl (((7-(((5S,8S,10aR)-3-(5-chlorobenzo[d]isoxazole-3-carbonyl)-8-(morpholine-4-carbonyl)-6-oxodecahydro-pyrrolo [1,2-a][1,5]diazocin-5-yl)carbamoyl)naphthalen-2-yl)fluoromethyl) (phenoxy)phosphoryl)-L-alaninate] | ≤ 100 nM |
| Cc1ccc2[nH]nc(C(=O)N3CC[C@H]4CC[C@@H](C(=O)N5C[C@H](c6cc[nH]c(=O)c6)CC56CC6)N4C(=O)[C@@H](NC(=O)c4ccc5ccc(C(F)(F)P(=O)(OCCSC(=O)CC(C)C)OCCSC(=O)CC(C)C)cc5c4)C3)c2c1 [Compound 431, S,S′-((((difluoro(7-(((5S,8S,10aR)-3-(5-methyl-1H-indazole-3-carbonyl)-6-oxo-8-(6-(2-oxo-1,2-dihydropyridin-4-y1)-4-azaspiro[2.4]heptane-4-carbonyl)dec-ahydropyrrolo [1,2-a][1,5]diazocin-5-yl)carbamoyl)naphthalen-2-yl)methyl)phosphoryl)bis(oxy))bis(ethane-2,1-diyl)) bis(3-methylbutane thioate)] | ≤ 100 nM |
| Cc1ccc2[nH]nc(C(=O)N3CC[C@H]4CC[C@@H](C(=O)N5CC(c6cc[nH]c(=O)c6)CC56CC6)N4C(=O)[C@@H](NC(=O)c4ccc5ccc(C(F)(F)P(=O)(OCCSC(=O)C(C)(C)C)OCCSC(=O)C(C)(C)C)cc5c4)C3)c2c1 (stereo partly drawn) [Compound 432, S,S′-((((difluoro(7 (((5S,8S,10aR)-3-(5-methyl-1H-indazole-3-carbonyl)-6-oxo-8-(6-(2-oxo-1,2-dihydro-pyridin-4-yl)-4-azaspiro [2.4]heptane-4-carbonyl)dec-ahydropyrrolo [1,2a][1,5]diazocin-5-yl)carbamoyl)naphthalen-2-yl)methyl)phosphoryl)bis(oxy))bis (ethane-2,1-diyl))bis(2,2-dimethylpro-panethioate)] | ≤ 100 nM |
| Cc1ccc2onc(C(=O)N3CC[C@H]4CC[C@@H](C(=O)N5C[C@H](c6cc[nH]c(=O)c6)CC56CC6)N4C(=O)[C@@H](NC(=O)c4ccc5ccc(C(F)(F)P(=O)(OCCSC(=O)C(C)(C)C)OCCSC(=O)C(C)(C)C)cc5c4)C3)c2c1 [Compound 434, S,S′-((((difluoro(7 (((5S,8S,10aR)-3-(5-methylbenzo [d]isoxazole-3-carbonyl)-6-oxo-8-((S)-6-(2-oxo-1,2-dihydropyridin-4-yl)-4-azaspiro[2.4]heptane-4-carbonyl)decahydro-pyrrolo [1,2-a][1,5]diazocin-5-yl)carbamoyl)naphthalen-2-yl)methyl)phosphoryl)bis (oxy))bis (ethane-2,1-diyl)) bis(2,2-dimethyl-propanethioate)] | ≤ 100 nM |
| Cc1ccc2onc(C(=O)N3CC[C@H]4CC[C@@H](C(=O)N5C[C@@H](c6cc[nH]c(=O)c6)CC56CC6)N4C(=O)[C@@H](NC(=O)c4ccc5ccc(C(F)(F)P(=O)(OCCSC(=O)C(C)(C)C)OCCSC(=O)C(C)(C)C)cc5c4)C3)c2c1 [Compound 435, S,S′-((((difluoro(7 (((5S,8S,10aR)-3-(5-methylbenzo [d]isoxazole-3-carbonyl)-6-oxo-8-((R)-6-(2-oxo-1,2-dihydro-pyridin-4-yl)-4-azaspiro[2.4]heptane-4-carbonyl)decahydro-pyrrolo[1,2-a] [1,5]diazocin-5-yl)carbamoyl)naphthalen-2-yl)methyl)phosphoryl)bis(oxy))bis (ethane-2,1-diyl))bis(2,2-dimethyl-propanethioate)] | ≤ 100 nM |
| Cc1ccc2onc(C(=O)N3CC[C@H]4CC[C@@H](C(=O)N5C[C@@H](c6ccn(C)c(=O)c6)CC56CC6)N4C(=O)[C@@H](NC(=O)c4ccc5ccc(C(F)(F)P(=O)(OCCSC(=O)C(C)(C)C)OCCSC(=O)C(C)(C)C)cc5c4)C3)c2c1 [Compound 436, S,S′-((((difluoro(7-(((5S,8S,10aR)-8-((R)-6-(1-methyl-2-oxo-1,2-dihydropyridin-4-yl)-4-azaspiro[2.4]heptane-4-carbonyl)-3-(5-methylbenzo [d]isoxazole-3-carbonyl)-6-oxodeca-hydropyrrolo [1,2-a][1,5]diazocin-5-yl)carbamoyl)naphthalen-2-yl)methyl)phosphoryl)bis (oxy))bis (ethane-2,1-diyl))bis(2,2-dimethyl-propanethioate)] | ≤ 100 nM |
| Cc1ccc2onc(C(=O)N3CC[C@H]4CC[C@@H](C(=O)N5C[C@H](c6ccn(C)c(=O)c6)CC56CC6)N4C(=O)[C@@H](NC(=O)c4ccc5ccc(C(F)(F)P(=O)(OCCSC(=O)C(C)(C)C)OCCSC(=O)C(C)(C)C)cc5c4)C3)c2c1 [Compound 437, S,S′-((((difluoro(7 (((5S,8S,10aR)-8-((S)-6-(1-methyl-2-oxo-1,2-dihydropyridin-4-yl)-4-azaspiro[2.4]heptane-4-carbonyl)-3-(5-methylbenzo [d]isoxazole-3-carbonyl)-6-oxodeca-hydropyrrolo [1,2-a][1,5]diazocin-5-yl)carbamoyl)naphthalen-2-yl)methyl)phosphoryl)bis (oxy))bis (ethane-2,1-diyl))bis(2,2-dimethyl-propanethioate)] | ≤ 100 nM |
| Cc1ccc2onc(C(=O)N3CC[C@H]4CC[C@@H](C(=O)N5C[C@H](c6ccn(C)c(=O)c6)CC56CC6)N4C(=O)[C@@H](NC(=O)c4ccc5ccc(C(F)(F)P(=O)(OCCSC(=O)CC(C)C)OCCSC(=O)CC(C)C)cc5c4)C3)c2c1 [Compound 438, S,S′-((((difluoro(7 (((5S,8S,10aR)-8-((S)-6-(1-methyl-2-oxo-1,2-dihydropyridin-4-yl)-4-azaspiro[2.4]heptane-4-carbonyl)-3-(5-methylbenzo [d]isoxazole-3-carbonyl)-6-oxodeca-hydropyrrolo [1,2-a][1,5]diazocin-5-yl)carbamoyl)naphthalen-2-yl)methyl)phosphoryl)bis (oxy))bis (ethane-2,1-diyl))bis(3-methylbutane thioate)] | ≤ 100 nM |
